In patent publication US10064843B2, “Bis-amide derivative and use thereof” (University-Industry Cooperation Group of Kyung Hee …, priority 2013, dated 2018):

Assays:
HCV-Con1b replicon = assay: HCV mouse model (NOD/SCID mice transplanted with Huh7 HCV-Con1b replicon cells); details: 50 mg/kg intraperitoneally daily, two weeks
Description: Five to six-week old immunodeficient NOD/SCID mice (Charles River Laboratories, USA) were used. The use of experimental animals and experimental protocol (KHUASP (SE)-11-045) was approved by the Institutional Animal Care and Use Committee of Kyung Hee University (Seoul, Korea). The control Huh7 cells or the Huh7 cells including the HCV-Con1b replicon were injected into mice intrasplenically (1×10^6 cells/200 μL of PBS). Cell transplantation and surgical procedures were performed under anesthesia along with a prophylactic antibiotic. […] Each treatment group consisted of 5 mice. Upon completion of the treatment, the mice were sacrificed and liver tissues were collected from them for analysis.
Murine liver tissues were dissected and then cryoprotected in 30% sucrose for the preparation of paraffin-embedded samples. Paraffin samples for Hematoxylin and Eosin (H&E) staining were prepared. After removing paraffin, rehydrated samples were incubated with monoclonal antibodies to human hepatocytes (Hep par 1) and HCV NS5A (Santa Cruz, Calif., USA), which were diluted at a ratio of 1:50, at 4° C. overnight. […] The nuclei were stained with DAPI for 5 minutes and analyzed using a confocal microscope.
HCV RNA was extracted from liver tissue by Trizol method. Mouse liver tissues were mechanically destroyed and lysed in Trizol (Invitrogen, Carlsbad, Calif., USA). The quantitative analysis of HCV RNA was performed using real-time transcription PCR.

HCV replicon cells = assay: Western blot of NS5A and NS5B in HCV replicon cells (total lysate, membrane fraction); type: cell-based, hepatitis C virus
Description: Example 10: Preparation of a Membrane Fraction
Cells grown to about 80% confluence in a culture dish with a diameter of 10 cm were scraped using PBS. The cells were pelleted by centrifugation at 220 g for 10 minutes. The pellet was resuspended in 1 mL hypotonic buffer (10 mM Tris-HCL pH 7.5, 10 mM KCL, 1.5 mM MgCl2, 0.5 mM PMSF (phenylmethylsulfonyl fluoride), and 2 μg/mL leupeptin), and incubated at 4° C. for 10 minutes. The suspension was homogenized using 75 strokes of a glass dounce homogenizer using a tight-fitting pestle (Sigma, St. Louis, Mo., USA). Nuclei and undestroyed cells were removed by centrifugation at 220 g for 10 minutes at 4° C. The cell membrane in the thus-obtained supernatant was directly centrifuged at 68,000 g for 1 hour at 4° C. using an ultracentrifuge tube in a micro-ultracentrifuge (Hitachi, Japan). Upon centrifugation, the coarse replication complex fraction was recovered from the pellet and used for western blot analysis.
Example 14: Western Blot Analysis
Cell extracts were separated by SDS-PAGE and then transferred to a nitrocellulose membrane. After blocking, the membrane was incubated with indicated primary antibody and subsequently incubated with secondary antibody. The samples were detected with enhanced chemiluminescence reagents (Santa Cruz, Calif., USA).

CypB = biological target: T1, CypB (Homo sapiens, UniProt P23284); assay: SPR binding of WJCPA-126 to CypB; details: SPR-based kinetic analysis
T1 construct: GST (N); made in house; host or cells: E. coli (pGEX-KG)

HCV replicon cell = assay: Combined treatment: MTT analysis in HCV replicon cell; type: cell-based, human
Description: Example 9: Analysis of Cytotoxicity
Cytotoxicity was analyzed in a 96-well plate using 5 mg/mL of MTT (3-(4,5-dimethylthiasol-2-yl)-2,5-diphenyltetrazolium bromide). The optical density of cells was measured at 550 nm using a microplate reader (Bio-Rad, Richmond, Calif., USA). Cell viability rate was expressed in percentage of the absorbance of treated cells relative to the absorbance of untreated cells.

NFAT1 = assay: NFAT dephosphorylation by western blot and immunofluorescence; type: cell-based, mouse
Description: Upon stimulation, the cells were washed with sterile PBS, suspended in lysis buffer (Invitrogen, Carlsbad, Calif., USA), incubated on ice for 10 minutes, and centrifuged at 19,000 g for 15 minutes. The phosphorylation state of the NFAT protein in the supernatant was confirmed by western blot analysis using monoclonal anti-NFATc 1. For the confirmation of NFAT1 localization using a confocal microscope, the cells were washed and then fixed by treating with 3.7% formaldehyde at room temperature for 20 minutes. […] Upon incubation, the cells were washed twice with PBS and incubated in a dark room at room temperature with secondary antibody, which was conjugated with Alexa 546 (Invitrogen, Carlsbad, Calif., USA) diluted in PBS containing 3% BSA at a 1:200 ratio, for 2 hours. […] Finally, the cells were washed once with PBS and mounted onto glass slides using a coverslip and a mounting solution (Vector Mount, Calif., USA). The images were captured via Zeiss confocal laser scanning microscope (Zeiss, Germany).

T1 sequence (P23284 34-216, species assumed): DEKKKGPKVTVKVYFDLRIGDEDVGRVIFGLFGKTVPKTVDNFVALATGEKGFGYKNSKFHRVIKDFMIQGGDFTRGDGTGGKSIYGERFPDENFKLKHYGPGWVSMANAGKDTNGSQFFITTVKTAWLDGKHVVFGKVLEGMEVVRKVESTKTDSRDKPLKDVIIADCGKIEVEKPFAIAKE

## COc1cc(C(C(=O)NC2CCCCC2)N(C(=O)Cc2c[nH]c3ccccc23)c2ccc(C(C)C)cc2)cc(OC)c1OC (stereo not shown) [WJCPA-126, N-cyclohexyl-2-[(2-1H-indol-3-yl-acetyl)-(4-isopropyl-phenyl)-amino]-2-(3,4,5-trimethoxy-phenyl)-acetamide]
HCV-Con1b replicon; FIG. 19a
  body weight: did not show any noticeable change in body weight
HCV-Con1b replicon; FIG. 19b
  HCV RNA level in liver: relatively higher level of inhibition on the HCV RNA level than the CsA treatment
HCV-Con1b replicon; FIG. 20
  HCV NS5A in transplanted mouse liver tissue (immunofluorescence): only faintly detected
HCV replicon cells; 0.5 μM to 4 μM, FIG. 10a
  levels of NS5A and NS5B proteins: decrease in the levels of NS5A and NS5B proteins in a dose-dependent manner
HCV replicon cells; 2 μM, HCV Con1b replicon cells, FIG. 10b
  NS5A and NS5B protein levels in total lysate and membrane fraction: decrease the protein levels of NS5A and NS5B in both the total lysate and the membrane fraction
CypB
  Kd: 2100 nM
HCV replicon cell; in combination with IFN-α, RBV, or telaprevir, FIG. 16a
  cytotoxicity in combined treatment: did not show any noticeable cytotoxicity
HCV replicon cell; in combination with interferon-α, ribavirin, or telaprevir
  cell viability in combined treatment: ≥ 80%
NFAT1; ionomycin stimulation, FIG. 9b
  NFAT1 migration into the nucleus: significant localization of NFAT1 within the nucleus
NFAT1; ionomycin-stimulated, FIG. 9a
  phosphorylation state of NFAT1: maintained the dephosphorylated state of NFAT1
